According to patent US20210071137A1, “PRODUCTION METHOD FOR CELL MASS INCLUDING NEURAL CELLS/TISSUE AND NON-NEURAL EPITHELIAL TISSUE, AND CELL MASS FROM SAME” (SUMITOMO CHEMICAL COMPANY, LIMITED, priority 2017, published 2021):

Legend:
[1] = system: Human ES cells (KhES-1 strain); test: Effect of compound pre-treatment before differentiation induction on quality grade of cell masses (Example 8); assay type: cell-based; conditions: day 15 of differentiation induction; for number of Grade 1 cell masses (near spherical, not less than 80% of circumference coated with nonneural epithelium) / number of Grade 2 cell masses (80% to 40% of circumference coated with nonneural epithelium, or distorted shape) / number of Grade 3 cell masses (nonneural epithelium on surface not more than 40%): of 32 cell masses, pre-treatment 6 days after seeding (300 nM SAG and/or 5 μM SB-431542)
Experimental: Human ES cells (KhES-1 strain) were cultured under feeder-free conditions according to the method described in Scientific Reports, 4, 3594 (2014). As the feeder-free medium, StemFit medium was used and, as the feeder-free scaffold, Laminin 511-E8 was used. Specific maintenance culturing operation was performed in the same manner as in Example 1. Cells under 4 conditions were prepared including conditions in which, when the cultured cells are used for differentiation induction, nothing is simultaneously added with medium change with […] medium (Control), conditions in which 300 nM SAG alone is added (+300 nM SAG), conditions in which 5 µM SB-431542 alone is added (+5 μM SB-431542), and conditions in which SAG and SB431542 are simultaneously added (+SAG/SB) at 6 days after seeding. The next day of the above-mentioned treatment, human ES cells under 4 conditions that reached subconfluence were each subjected to differentiation induction by suspension culturing into a cell mass containing neural tissue and nonneural epithelial tissue according to the method described in Example 1. Thereafter, on day 15 of differentiation induction, bright field observation was performed using an inverted microscope (manufactured by KEYENCE CORPORATION, BIOREVO). The cell masses formed after each pre-treatment were evaluated in three stages of cell masses with near spherical form in which not less than 80% of the whole circumference is coated with nonneural epithelium (Grade 1, e.g.-FIG. 9A); cell masses in which 80% to 40% of the whole circumference is coated with nonneural epithelium, or with a distorted shape (Grade 2, e.g.-FIG. 9B); and cell masses in which the proportion of nonneural epithelium on the cell mass surface is not more than 40% (Grade 3, e.g.=FIG. 9C).

[2] = system: Human ES cells (KhES-1 strain); test: Effect of each Wnt signal transduction pathway inhibiting substance on production of cell mass containing neural tissue and nonneural epithelial tissue (Example 7); assay type: cell-based; conditions: inhibitor added from start of suspension culturing (IWP-2 2 or 5 μM, C-59 2 μM, IWP-L6 1 or 10 μM, LGK974 1 or 5 μM, KY 02111 1 or 5 μM, XAV939 1 μM) with SB-431542 1 μM; BMP4 1.5 nM on day 2; bright field observation day 10
Experimental: Human ES cells (KhES-1 strain) were cultured under feeder-free conditions according to the method described in Scientific Reports, 4, 3594 (2014). As the feeder-free medium, StemFit medium was used and, as the feeder-free scaffold, Laminin 511-E8 was used. Specific maintenance culturing operation was performed in the same manner as in Example 1.
The thus-prepared subconfluent human ES cells were washed with PBS, subjected to an enzyme treatment using Accumax, a mukessei medium medium for differentiation induction was added, and the cells were scraped from the surface of the culture dish by using a cell scraper and dispersed into single cells by pipetting. Thereafter, the aforementioned human ES cells dispersed into single cells were suspended in 100 μl of a serum-free medium at 1.2×10^4 cells per well of a non-cell-adhesive 96-well culture plate (PrimeSurface 96V-bottom plate, manufactured by SUMITOMO BAKELITE), and cultured in suspension under the conditions of 37° C., 5% CO2. As the serum-free medium (gfCDM+KSR) therefor, a serum-free medium which is a 1:1 mixture of F-12+Glutamax medium and IMDM+Glutamax medium supplemented with 5% Knockout Serum Replacement, 450 μM 1-mono thioglycerol, 1× Chemically defined lipid concentrate, 50u/ml penicillin-50 μg/ml streptomycin was used. At the time of the start of suspension culturing (day 0 from the start of suspension culturing, start of step 1), Y27632 (final concentration 20 μM) and SB-431542 (1 μM) were added to the aforementioned serum-free medium. As the Wnt signal transduction pathway inhibiting substance, IWP-2 (manufactured by Tocris Bioscience, 2 or 5 μM), C-59 (manufactured by Cayman Chemicals, 2 μM), IWP-L6 (manufactured by AdooQ bioscience, 1 or 10 μM), LGK974 (manufactured by Cayman Chemicals, 1 or 5 μM), KY 02111 (manufactured by Cayman Chemicals, 1 or 5 μM), or XAV939 (manufactured by Cayman Chemicals, 1 μM) was added at the start of the suspension culturing, and the condition with the addition of DMSO alone as a control of no addition of a Wnt signal transduction pathway inhibiting substance was performed. Thereafter, a serum-free medium not containing Y27632 and containing each Wnt signal transduction pathway inhibiting substance, SB-431542 and BMP4 was added at 100 μl per well on day 2 from the start of suspension culturing. BMP4 was added at 3 nM to the medium so that the final concentration in the well could be 1.5 nM. A half amount of the medium was changed with a serum-free medium not containing Y27632 or BMP and containing each Wnt signal transduction pathway inhibiting substance and SB-431542 on day 6 from the start of suspension culturing. Bright field observation was performed under an inverted microscope (manufactured by KEYENCE CORPORATION, BIOREVO) on day 10 from the start of suspension culturing (FIGS. 8A-K).

NC(=O)c1ccc(-c2nc(-c3ccc4c(c3)OCO4)c(-c3ccccn3)[nH]2)cc1 [SB-431542, 4-(5-benzol[1,3]dioxol-5-yl-4-pyridin-2-yl-1H-imidazol-2-yl)-benzamide]
number of Grade 1 cell masses (near spherical, not less than 80% of circumference coated with nonneural epithelium) [1]: 28
number of Grade 2 cell masses (80% to 40% of circumference coated with nonneural epithelium, or distorted shape) [1]: 4
number of Grade 3 cell masses (nonneural epithelium on surface not more than 40%) [1]: 0
proportion of Grade 1 cell masses as compared to Control with no treatment ([1]; pre-treatment 6 days after seeding): drastically improved

Cc1ccc2nc(NC(=O)CSc3nc4c(c(=O)n3-c3ccccc3)SCC4)sc2c1 [IWP-2]
formation of cell mass having nonneural epithelial tissue on the surface [2]: a cell mass having nonneural epithelial tissue on the surface was formed

O=C(CSc1nc2c(c(=O)n1-c1ccccc1)SCC2)Nc1ccc(-c2ccccc2)cn1 [IWP-L6]
formation of cell mass having nonneural epithelial tissue on the surface [2]: a cell mass having nonneural epithelial tissue on the surface was formed

Cc1cc(-c2ncc(CC(=O)Nc3ccc(-c4cnccn4)cn3)cc2C)ccn1 [LGK974]
formation of cell mass having nonneural epithelial tissue on the surface [2]: a cell mass having nonneural epithelial tissue on the surface was formed

Cc1cc(-c2ccc(CC(=O)Nc3ccc(-c4cccnc4)cc3)cc2)ccn1 [C-59]
formation of cell mass having nonneural epithelial tissue on the surface [2]: a cell mass having nonneural epithelial tissue on the surface was formed

Oc1nc(-c2ccc(C(F)(F)F)cc2)nc2c1CSCC2 [XAV939]
formation of cell mass having nonneural epithelial tissue on the surface [2]: a cell mass having nonneural epithelial tissue on the surface was formed

CNC1CCC(N(Cc2cccc(-c3ccncc3)c2)C(=O)c2sc3ccccc3c2Cl)CC1 (stereo not shown) [SAG, N-Methyl-N′-(3-pyridinylbenzyl)-N′-(3-chlorobenzo[b]thiophene-2-carbonyl)-1,4-diaminocyclohexane]
number of Grade 1 cell masses (near spherical, not less than 80% of circumference coated with nonneural epithelium) [1]: 10
number of Grade 2 cell masses (80% to 40% of circumference coated with nonneural epithelium, or distorted shape) [1]: 18
number of Grade 3 cell masses (nonneural epithelium on surface not more than 40%) [1]: 4

COc1ccc(CCC(=O)Nc2nc3ccc(Cl)cc3s2)cc1OC [KY02111]
formation of cell mass having nonneural epithelial tissue on the surface [2]: a cell mass having nonneural epithelial tissue on the surface was formed
